From patent publication US5650550A, “Mutant mice having a deficit of functional estrogen receptors” (The United States of America as represented by the …, priority 1995, dated 1997)

Tested on: adult female mice (uterus, vagina)
Assay: Estrogen responsiveness bioassay in adult females (uterine wet weight, hyperemia, vaginal epithelial cytology)
Assay type: in vivo, mouse
Settings: for vaginal histology: after estradiol treatment; for increase in uterine wet weight: treated for three days, compared to untreated control

`C[C@]12CC[C@@H]3c4ccc(O)cc4CC[C@H]3[C@@H]1CC[C@@H]2O` [estradiol] was tested, and the vaginal histology (ER disrupted animals) was “unaltered”, the “uterine water imbibition or uterine hyperemia” value (ER disrupted animals, treatment for 4-6 hours) was “no uterine water imbibition or uterine hyperemia” and the “increase in uterine wet weight” value (heterozygous animals) was 3-4 fold. The “increase in uterine weight or hyperemia” value (homozygous ER disrupted animals, three day bioassay) was “did not respond”, the uterine hyperemia (wild type and heterozygotes, three day bioassay) was “became hyperemic” and the vaginal histology (wild type and heterozygous animals) was “increase in number of cornified epithelial cells”. For the same compound, the “increase in uterine wet weight” value (wild type animals) was 3-4 fold.
